This passage reports IC50 results from ChEMBL document CHEMBL3045879, “Isolation of long-chain esters from the rhizome of Polygonatum verticillatum by potent tyrosinase inhibition” (Med Chem Res, 2013).

For the experiment, the target named is T1, Tyrosinase (Agaricus bisporus, UniProt O42713).
T1 sequence (O42713 whole entry): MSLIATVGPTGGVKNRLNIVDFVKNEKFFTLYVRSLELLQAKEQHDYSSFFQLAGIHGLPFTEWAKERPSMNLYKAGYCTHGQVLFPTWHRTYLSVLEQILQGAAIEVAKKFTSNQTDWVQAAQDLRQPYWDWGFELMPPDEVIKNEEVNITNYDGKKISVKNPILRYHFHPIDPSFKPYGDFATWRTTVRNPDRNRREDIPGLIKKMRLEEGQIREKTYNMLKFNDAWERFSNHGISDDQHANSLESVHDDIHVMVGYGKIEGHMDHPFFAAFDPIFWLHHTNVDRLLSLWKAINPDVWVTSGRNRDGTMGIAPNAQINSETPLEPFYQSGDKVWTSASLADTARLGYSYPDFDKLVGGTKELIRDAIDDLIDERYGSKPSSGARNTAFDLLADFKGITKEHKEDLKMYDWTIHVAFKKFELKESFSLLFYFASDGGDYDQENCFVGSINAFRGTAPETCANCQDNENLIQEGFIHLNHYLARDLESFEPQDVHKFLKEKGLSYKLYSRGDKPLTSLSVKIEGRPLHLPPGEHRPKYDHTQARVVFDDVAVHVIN
Put plainly: Inhibition of Agaricus bisporus (mushroom) tyrosinase assessed as decrease in dopachrome formation using L-DOPA as substrate preincubated with enzyme for 10 min prior to substrate addition measured for 10 min by microplate reader analysis.

pIC50: −log10 of the molar value.

As usually defined, the pIC50 is −log10 of the IC50, conventionally taken in molar units. With `CCCCCCCCCCCCCCC(=O)OCCC` [PROPYL PENTADECANOATE], the pIC50 was 4.65.
The same measure for `CCCCCCCCCCCCCCC(=O)OCC(O)CO` (configuration not stated) [2',3'-DIHYDROXY PROPYL PENTADECANOATE]: 5.02.
